pIC50: −log10 of the molar value.
Experiment: Antagonist activity at CCR1 in human THP1 cells assessed as inhibition of chemotaxis after 30 mins by Celltiter-glo reagent based luminescence assay

pIC50	Structure (SMILES)
8.82	CC(C)[C@@H](NC(=O)NCC(C)(C)O)C(=O)N1CC[C@](O)(c2ccc(Cl)cc2)C(C)(C)C1
5.92	Cc1c(C(=O)NCc2cccc(C(F)(F)F)c2)cnn1-c1ccc(Cl)c(Cl)c1
8.40	COc1cc(N2CCN(C(=O)Cn3nc(-c4ncc[nH]4)c4cccnc43)CC2)ccc1Cl

Structure (SMILES)	pIC50
CC(C)(O)c1ccc2c(c1)/C(=C\CCN1CC[C@](O)(c3ccc(Cl)cc3)C(C)(C)C1)c1cccnc1CO2	8.74

Reference: BindingDB's records for doi:10.1016/j.bmcl.2018.11.015 (Boehringer Ingelheim Pharmaceuticals, 2019)
